Reference: PMC3914206

Experiments:
Assay type in all cases: binding
Design in all cases: KINOMEscan: ABL1(F317L)-phosphorylated / KINOMEscan: ABL1(H396P)-nonphosphorylated / KINOMEscan: ABL1(H396P)-phosphorylated / KINOMEscan: ABL1(M351T)-phosphorylated / KINOMEscan: ABL1(T315I)-phosphorylated / KINOMEscan: ABL1-nonphosphorylated / KINOMEscan: ABL1-phosphorylated / KINOMEscan: ACVR2A / KINOMEscan: ACVR2B / KINOMEscan: ADCK3 / KINOMEscan: ADCK4 / KINOMEscan: AKT1 / KINOMEscan: AKT3 / KINOMEscan: ALK / KINOMEscan: ARK5 / KINOMEscan: AURKA / KINOMEscan: AURKC / KINOMEscan: BIKE / KINOMEscan: BMPR1A / KINOMEscan: BMPR1B / KINOMEscan: BMX / KINOMEscan: BRK / KINOMEscan: BRSK1 / KINOMEscan: BRSK2 / KINOMEscan: CAMK1 / KINOMEscan: CAMK1D / KINOMEscan: CAMK1G / KINOMEscan: CAMK2A / KINOMEscan: CAMK2B / KINOMEscan: AAK1 / KINOMEscan: CAMK2D / KINOMEscan: CAMK2G / KINOMEscan: ABL1(F317I)-nonphosphorylated / KINOMEscan: ABL1(F317I)-phosphorylated / KINOMEscan: ABL1(F317L)-nonphosphorylated: unit: % Ctrl
Details in all cases: Compound Concentration 10 µM
[1] = target: T1, panel of 442 kinases (Homo sapiens, UniProt Q13464)
T1 construct: purchased KINOMEscan
From the text: (§1) We assessed the selectivity of members of this scaffold using the KINOMEscan methodology across a near comprehensive panel of 442 kinases [[18,27]].

[2] = target: T2, panel of 442 kinases (Homo sapiens, UniProt Q14680)
T2 construct: purchased KINOMEscan
From the text: as §1

[3] = target: T3, panel of 442 kinases (Homo sapiens, UniProt Q9H2X6)
T3 construct: purchased KINOMEscan
From the text: as §1

[4] = target: T4, panel of 442 kinases (Homo sapiens, UniProt Q9NSY1)
T4 construct: purchased KINOMEscan
From the text: as §1

T3 sequence (Q9H2X6 whole entry): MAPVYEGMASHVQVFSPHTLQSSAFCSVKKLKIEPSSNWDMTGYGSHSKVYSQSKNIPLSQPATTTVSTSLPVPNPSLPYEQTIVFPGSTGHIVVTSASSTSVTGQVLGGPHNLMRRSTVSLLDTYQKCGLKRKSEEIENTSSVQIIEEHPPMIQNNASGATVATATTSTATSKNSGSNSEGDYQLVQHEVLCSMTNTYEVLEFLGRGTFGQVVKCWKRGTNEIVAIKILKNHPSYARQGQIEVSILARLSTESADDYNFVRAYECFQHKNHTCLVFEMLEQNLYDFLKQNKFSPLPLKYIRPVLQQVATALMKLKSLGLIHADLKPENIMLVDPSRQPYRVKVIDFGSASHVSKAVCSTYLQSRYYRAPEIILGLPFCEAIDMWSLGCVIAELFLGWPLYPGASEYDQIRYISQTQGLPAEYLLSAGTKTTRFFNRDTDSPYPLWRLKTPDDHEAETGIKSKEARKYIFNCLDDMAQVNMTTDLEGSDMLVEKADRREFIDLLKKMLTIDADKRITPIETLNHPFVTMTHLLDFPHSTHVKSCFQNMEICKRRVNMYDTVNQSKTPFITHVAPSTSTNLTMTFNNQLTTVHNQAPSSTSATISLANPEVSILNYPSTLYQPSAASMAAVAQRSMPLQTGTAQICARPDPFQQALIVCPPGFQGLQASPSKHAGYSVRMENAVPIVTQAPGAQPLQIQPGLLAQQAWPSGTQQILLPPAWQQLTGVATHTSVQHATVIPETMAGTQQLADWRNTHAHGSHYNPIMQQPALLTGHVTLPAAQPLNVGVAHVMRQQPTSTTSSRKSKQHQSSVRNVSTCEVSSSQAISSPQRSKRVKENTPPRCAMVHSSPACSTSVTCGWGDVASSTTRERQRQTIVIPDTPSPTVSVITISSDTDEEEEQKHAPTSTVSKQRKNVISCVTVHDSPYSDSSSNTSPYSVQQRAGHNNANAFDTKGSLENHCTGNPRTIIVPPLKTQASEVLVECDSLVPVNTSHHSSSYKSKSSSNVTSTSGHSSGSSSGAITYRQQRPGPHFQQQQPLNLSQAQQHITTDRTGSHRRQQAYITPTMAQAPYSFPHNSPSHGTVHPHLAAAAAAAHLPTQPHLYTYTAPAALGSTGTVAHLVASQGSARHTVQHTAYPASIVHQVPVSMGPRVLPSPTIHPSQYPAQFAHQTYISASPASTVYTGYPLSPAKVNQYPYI
T1 sequence (Q13464 whole entry): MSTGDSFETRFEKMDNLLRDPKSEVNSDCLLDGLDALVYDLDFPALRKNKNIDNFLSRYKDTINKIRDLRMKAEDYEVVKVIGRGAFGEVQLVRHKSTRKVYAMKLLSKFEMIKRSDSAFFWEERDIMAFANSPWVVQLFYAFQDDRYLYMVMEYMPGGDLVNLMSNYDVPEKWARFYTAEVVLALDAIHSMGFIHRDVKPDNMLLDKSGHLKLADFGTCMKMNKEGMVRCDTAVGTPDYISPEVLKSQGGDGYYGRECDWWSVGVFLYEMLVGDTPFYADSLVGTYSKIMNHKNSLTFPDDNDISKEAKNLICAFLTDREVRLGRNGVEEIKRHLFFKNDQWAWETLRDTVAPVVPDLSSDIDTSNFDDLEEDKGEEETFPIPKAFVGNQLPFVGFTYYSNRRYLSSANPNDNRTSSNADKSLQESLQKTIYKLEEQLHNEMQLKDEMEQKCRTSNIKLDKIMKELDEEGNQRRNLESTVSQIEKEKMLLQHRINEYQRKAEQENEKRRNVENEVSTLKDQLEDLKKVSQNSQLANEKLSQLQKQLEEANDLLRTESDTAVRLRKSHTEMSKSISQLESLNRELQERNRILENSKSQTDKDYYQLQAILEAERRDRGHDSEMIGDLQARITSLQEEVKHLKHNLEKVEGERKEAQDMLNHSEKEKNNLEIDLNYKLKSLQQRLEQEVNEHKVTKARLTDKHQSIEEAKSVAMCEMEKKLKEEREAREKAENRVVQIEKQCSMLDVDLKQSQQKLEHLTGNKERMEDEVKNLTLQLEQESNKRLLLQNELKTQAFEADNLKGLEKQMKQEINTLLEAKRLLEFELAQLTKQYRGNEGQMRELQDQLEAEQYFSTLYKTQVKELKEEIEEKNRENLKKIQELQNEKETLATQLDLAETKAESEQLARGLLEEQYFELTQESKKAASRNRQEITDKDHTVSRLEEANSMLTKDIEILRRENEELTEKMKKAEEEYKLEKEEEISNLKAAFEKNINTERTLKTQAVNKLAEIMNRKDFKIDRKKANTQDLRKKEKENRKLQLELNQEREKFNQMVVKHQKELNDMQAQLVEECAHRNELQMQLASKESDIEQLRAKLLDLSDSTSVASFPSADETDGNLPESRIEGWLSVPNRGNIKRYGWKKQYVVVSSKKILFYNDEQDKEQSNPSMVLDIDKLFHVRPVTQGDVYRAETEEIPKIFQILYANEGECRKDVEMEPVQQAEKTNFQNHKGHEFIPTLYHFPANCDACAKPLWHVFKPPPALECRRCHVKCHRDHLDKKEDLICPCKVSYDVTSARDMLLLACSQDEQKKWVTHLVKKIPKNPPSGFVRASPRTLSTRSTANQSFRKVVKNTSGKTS
T2 sequence (Q14680 whole entry): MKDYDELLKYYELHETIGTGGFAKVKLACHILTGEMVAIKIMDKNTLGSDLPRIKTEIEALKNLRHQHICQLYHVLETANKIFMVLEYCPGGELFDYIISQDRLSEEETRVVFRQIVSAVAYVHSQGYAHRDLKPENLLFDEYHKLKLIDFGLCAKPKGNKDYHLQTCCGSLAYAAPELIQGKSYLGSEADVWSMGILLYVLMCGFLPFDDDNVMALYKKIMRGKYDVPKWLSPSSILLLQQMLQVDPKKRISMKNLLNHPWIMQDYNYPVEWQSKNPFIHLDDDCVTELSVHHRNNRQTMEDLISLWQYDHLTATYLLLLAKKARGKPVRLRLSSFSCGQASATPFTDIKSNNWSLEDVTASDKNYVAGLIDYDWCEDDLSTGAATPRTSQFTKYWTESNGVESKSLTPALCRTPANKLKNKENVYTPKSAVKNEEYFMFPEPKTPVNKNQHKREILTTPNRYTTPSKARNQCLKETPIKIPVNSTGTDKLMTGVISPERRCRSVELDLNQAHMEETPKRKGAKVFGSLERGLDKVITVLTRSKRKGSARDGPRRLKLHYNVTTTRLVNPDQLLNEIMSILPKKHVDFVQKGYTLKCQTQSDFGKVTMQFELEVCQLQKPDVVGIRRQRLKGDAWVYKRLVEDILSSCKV
T4 sequence (Q9NSY1 whole entry): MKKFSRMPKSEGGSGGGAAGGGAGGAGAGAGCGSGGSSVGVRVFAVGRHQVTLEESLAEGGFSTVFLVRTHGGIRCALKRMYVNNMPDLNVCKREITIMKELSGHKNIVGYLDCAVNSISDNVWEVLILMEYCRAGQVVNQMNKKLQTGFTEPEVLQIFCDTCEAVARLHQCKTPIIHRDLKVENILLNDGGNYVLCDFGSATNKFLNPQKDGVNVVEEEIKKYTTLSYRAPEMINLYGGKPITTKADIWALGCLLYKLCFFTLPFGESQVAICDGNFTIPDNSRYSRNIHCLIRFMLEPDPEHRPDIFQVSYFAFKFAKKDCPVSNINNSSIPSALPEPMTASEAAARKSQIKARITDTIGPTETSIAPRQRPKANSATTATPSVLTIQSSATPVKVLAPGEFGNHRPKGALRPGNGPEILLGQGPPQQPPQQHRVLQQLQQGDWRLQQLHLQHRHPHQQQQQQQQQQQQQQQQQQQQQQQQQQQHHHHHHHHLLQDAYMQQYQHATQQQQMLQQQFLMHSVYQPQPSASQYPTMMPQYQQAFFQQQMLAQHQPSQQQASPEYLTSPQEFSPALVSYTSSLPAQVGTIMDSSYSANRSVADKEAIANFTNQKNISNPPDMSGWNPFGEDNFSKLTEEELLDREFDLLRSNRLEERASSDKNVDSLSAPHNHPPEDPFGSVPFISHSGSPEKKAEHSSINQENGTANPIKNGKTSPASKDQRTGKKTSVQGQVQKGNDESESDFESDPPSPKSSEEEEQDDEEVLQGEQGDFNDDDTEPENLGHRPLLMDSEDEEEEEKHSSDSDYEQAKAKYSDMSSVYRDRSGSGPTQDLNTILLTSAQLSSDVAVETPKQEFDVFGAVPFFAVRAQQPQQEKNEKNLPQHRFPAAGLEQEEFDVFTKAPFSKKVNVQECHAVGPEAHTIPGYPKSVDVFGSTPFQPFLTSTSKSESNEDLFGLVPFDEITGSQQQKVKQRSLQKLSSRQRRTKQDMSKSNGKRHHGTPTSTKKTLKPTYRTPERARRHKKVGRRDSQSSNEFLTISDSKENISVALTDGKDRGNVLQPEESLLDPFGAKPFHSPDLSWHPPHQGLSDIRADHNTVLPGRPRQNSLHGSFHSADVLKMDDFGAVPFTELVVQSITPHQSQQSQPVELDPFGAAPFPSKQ

| SMILES | KINOMEscan: ROCK1 [1] | KINOMEscan: MELK [2] | KINOMEscan: HIPK2 [3] | KINOMEscan: BIKE [4] |
| --- | --- | --- | --- | --- |
| COc1cc(C(=O)N2CCC(N3CCN(C)CC3)CC2)ccc1Nc1ncc2c(n1)N(C1CCCC1)c1ccccc1C(=O)N2C [Compound 25, 11-cyclopentyl-2-((2-methoxy-4-(4-(4-methylpiperazin-1-yl)piperidine-1-carbonyl)phenyl)amino)-5-methyl-5H-benzo[e]pyrimido[5,4-b][1,4]diazepin-6(11H)-one] | 74 | 100 | 100 | 93 |
| CCOc1cc(C(=O)N2CCC(N3CCN(C)CC3)CC2)ccc1Nc1ncc2c(n1)N(C1CCCC1)c1ccccc1C(=O)N2C [Compound 26] | 77 | 100 | 100 | 100 |
| COc1cc(C(=O)N2CCC(N3CCN(C)CC3)CC2)ccc1Nc1ncc2c(n1)N1CCc3cccc(c31)C(=O)N2C [Compound 24] | 64 | 62 | 88 | 73 |
| COc1cc(C(=O)N2CCC(N3CCN(C)CC3)CC2)ccc1Nc1ncc2c(n1)N(C)c1ccccc1C(=O)N2C [15 (LRRK2-IN-1)] | 100 | 100 | 88 | 100 |
